Values joined by “and” are separate entries in the source; they are usually repeats but may differ in a detail not shown here. Identical values can stand only once.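 The compound was tested at five concentrations on cells cultured in 96-well plates, with a 48-hour exposure period. Here, GI50 denotes the concentration required for 50% inhibition of growth. TGI marks complete inhibition of growth.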
Columns and labels:
Assay in all cases: NCI tumour cell line growth inhibition, 48 h; in the data active means GI50 below about 0.43 µM; inactive means the rest
SF-539 CNS = tested on: SF-539 CNS
HOP-92 NSCLC = tested on: HOP-92 NSCLC
M14 melanoma = tested on: M14 melanoma
SN12C renal = tested on: SN12C renal
MALME-3M melanoma = tested on: MALME-3M melanoma
BT-549 breast = tested on: BT-549 breast
NCI-H23 lung = tested on: NCI-H23 lung
TK-10 renal = tested on: TK-10 renal
NCI-H226 lung = tested on: NCI-H226 lung
OVCAR-3 ovarian = tested on: OVCAR-3 ovarian
CAKI-1 renal = tested on: CAKI-1 renal
OVCAR-5 ovarian = tested on: OVCAR-5 ovarian
MOLT-4 leukemia = tested on: MOLT-4 leukemia
786-0 renal = tested on: 786-0 renal
SNB-19 CNS = tested on: SNB-19 CNS
HCC-2998 colon = tested on: HCC-2998 colon
SNB-75 CNS = tested on: SNB-75 CNS
UACC-257 melanoma = tested on: UACC-257 melanoma
OVCAR-8 ovarian = tested on: OVCAR-8 ovarian
HOP-62 NSCLC = tested on: HOP-62 NSCLC
MDA-MB-435 = tested on: MDA-MB-435
SK-OV-3 ovarian = tested on: SK-OV-3 ovarian
HCT-15 colon = tested on: HCT-15 colon
SF-268 CNS = tested on: SF-268 CNS
SF-295 CNS = tested on: SF-295 CNS
IGROV1 ovarian = tested on: IGROV1 ovarian
COLO 205 colon = tested on: COLO 205 colon
U251 CNS = tested on: U251 CNS
RXF 393 renal = tested on: RXF 393 renal
DU-145 prostate = tested on: DU-145 prostate
EKVX NSCLC = tested on: EKVX NSCLC
OVCAR-4 ovarian = tested on: OVCAR-4 ovarian
CCRF-CEM leukemia = tested on: CCRF-CEM leukemia
ACHN renal = tested on: ACHN renal
HS 578T breast = tested on: HS 578T breast
LOX IMVI melanoma = tested on: LOX IMVI melanoma
MDA-N = tested on: MDA-N
RPMI-8226 leukemia = tested on: RPMI-8226 leukemia
A549 NSCLC = tested on: A549 NSCLC
SK-MEL-5 melanoma = tested on: SK-MEL-5 melanoma
HCT-116 colon = tested on: HCT-116 colon
SK-MEL-2 melanoma = tested on: SK-MEL-2 melanoma
MDA-MB-231 breast = tested on: MDA-MB-231 breast
SW-620 colon = tested on: SW-620 colon
HT29 colon = tested on: HT29 colon
HL-60(TB) leukemia = tested on: HL-60(TB) leukemia
A498 renal = tested on: A498 renal
KM12 colon = tested on: KM12 colon
PC-3 prostate = tested on: PC-3 prostate
NCI-H522 lung = tested on: NCI-H522 lung
UACC-62 melanoma = tested on: UACC-62 melanoma
T-47D breast = tested on: T-47D breast
SK-MEL-28 melanoma = tested on: SK-MEL-28 melanoma
NCI/ADR-RES ovarian = tested on: NCI/ADR-RES ovarian
MCF7 breast = tested on: MCF7 breast
NCI-H460 lung = tested on: NCI-H460 lung
UO-31 renal = tested on: UO-31 renal

COc1cccc2c1C(=O)c1c(O)c3c(c(O)c1C2=O)C[C@@](O)(C(=O)CO)C[C@@H]3OC1CC2C(OCN3CN2COC2C(C)OC(O[C@H]4C[C@](O)(C(=O)CO)Cc5c(O)c6c(c(O)c54)C(=O)c4c(OC)cccc4C6=O)CC23)C(C)O1 (some centres not stated)
0.0663 µM and 0.0342 µM: TGI (SNB-75 CNS)
0.734 µM and 1.32 µM and 0.21 µM: TGI (BT-549 breast)
0.574 µM and 0.294 µM: TGI (SK-MEL-28 melanoma)
0.00658 µM: TGI (MOLT-4 leukemia)
4.22 µM and 1.27 µM: TGI (OVCAR-8 ovarian)
2.64 µM and 0.294 µM: TGI (KM12 colon)
25 µM and 4.71 µM: TGI (SK-OV-3 ovarian)
0.381 µM and 0.263 µM and 0.506 µM: TGI (HOP-92 NSCLC)
0.0116 µM: TGI (RPMI-8226 leukemia)
0.705 µM and 0.893 µM: TGI (MDA-MB-231 breast)
0.198 µM and 0.381 µM and 0.136 µM: TGI (UACC-257 melanoma)
0.204 µM and 0.0287 µM: TGI (LOX IMVI melanoma)
0.0641 µM and 0.148 µM: TGI (RXF 393 renal)
active: GI50 (SF-539 CNS) 0.00553 µM | GI50 (HOP-92 NSCLC) 0.0153 µM and 0.0159 µM | GI50 (M14 melanoma) 0.0505 µM | GI50 (SN12C renal) 0.0121 µM | GI50 (MALME-3M melanoma) 0.0159 µM | GI50 (BT-549 breast) 0.117 µM and 0.0262 µM | GI50 (NCI-H23 lung) 0.0116 µM | GI50 (TK-10 renal) 0.232 µM | GI50 (NCI-H226 lung) 0.0357 µM and 0.0102 µM | GI50 (OVCAR-3 ovarian) 0.0467 µM and 0.0154 µM | GI50 (CAKI-1 renal) 0.0175 µM | GI50 (OVCAR-5 ovarian) 0.0886 µM and 0.0202 µM | GI50 (786-0 renal) 0.00792 µM | GI50 (SNB-19 CNS) 0.0152 µM | GI50 (HCC-2998 colon) 0.075 µM and 0.0239 µM | GI50 (SNB-75 CNS) 0.00756 µM | GI50 (UACC-257 melanoma) 0.0244 µM | GI50 (OVCAR-8 ovarian) 0.0176 µM | GI50 (HOP-62 NSCLC) 0.0218 µM | GI50 (MDA-MB-435) 0.0649 µM and 0.0267 µM | GI50 (SK-OV-3 ovarian) 0.131 µM and 0.0429 µM | GI50 (HCT-15 colon) 0.118 µM and 0.0517 µM | GI50 (SF-268 CNS) 0.00635 µM and 0.0122 µM | GI50 (SF-295 CNS) 0.0312 µM | GI50 (IGROV1 ovarian) 0.0176 µM | GI50 (COLO 205 colon) 0.0127 µM | GI50 (U251 CNS) 0.00772 µM | GI50 (RXF 393 renal) 0.0148 µM | GI50 (DU-145 prostate) 0.0119 µM | GI50 (EKVX NSCLC) 0.0855 µM and 0.0199 µM | GI50 (OVCAR-4 ovarian) 0.104 µM | GI50 (CCRF-CEM leukemia) 0.00301 µM | GI50 (ACHN renal) 0.0082 µM | GI50 (HS 578T breast) 0.0321 µM | GI50 (MDA-N) 0.0522 µM and 0.021 µM | GI50 (RPMI-8226 leukemia) 0.00487 µM | GI50 (A549 NSCLC) 0.0128 µM | GI50 (SK-MEL-5 melanoma) 0.0447 µM | GI50 (HCT-116 colon) 0.0166 µM | GI50 (SK-MEL-2 melanoma) 0.023 µM | GI50 (MDA-MB-231 breast) 0.0482 µM | GI50 (SW-620 colon) 0.0104 µM | GI50 (HT29 colon) 0.0199 µM | GI50 (HL-60(TB) leukemia) 0.00267 µM | GI50 (A498 renal) 0.00382 µM | GI50 (KM12 colon) 0.046 µM and 0.0179 µM | GI50 (PC-3 prostate) 0.0501 µM | GI50 (NCI-H522 lung) 0.0068 µM | GI50 (UACC-62 melanoma) 0.00501 µM | GI50 (T-47D breast) 0.0697 µM | GI50 (SK-MEL-28 melanoma) 0.0493 µM | GI50 (NCI/ADR-RES ovarian) 0.325 µM and 0.0586 µM
0.148 µM: TGI (HT29 colon)
0.236 µM and 0.263 µM: TGI (SK-MEL-5 melanoma)
0.71 µM and 2.6 µM: TGI (U251 CNS)
3.45 µM and 1.35 µM: TGI (SF-295 CNS)
0.473 µM and 0.312 µM: TGI (COLO 205 colon)
0.0966 µM and 0.134 µM and 0.0359 µM: TGI (SN12C renal)
0.332 µM and 0.381 µM: TGI (M14 melanoma)
0.419 µM and 2.77 µM and 1.23 µM: TGI (HOP-62 NSCLC)
0.616 µM and 0.072 µM: TGI (EKVX NSCLC)
0.673 µM: TGI (ACHN renal)
0.197 µM and 0.0809 µM: TGI (MALME-3M melanoma)
4.63 µM: TGI (A549 NSCLC)
0.112 µM and 0.067 µM: TGI (SK-MEL-2 melanoma)
3.2 µM: TGI (SNB-19 CNS)
5.22 µM: TGI (OVCAR-4 ovarian)
0.374 µM and 0.352 µM and 0.133 µM: TGI (MDA-MB-435)
0.277 µM and 0.5 µM and 0.104 µM: TGI (HCC-2998 colon)
0.16 µM and 0.0538 µM: TGI (NCI-H522 lung)
0.209 µM and 0.108 µM and 0.0217 µM: TGI (NCI-H23 lung)
0.935 µM and 0.89 µM: TGI (PC-3 prostate)
25 µM and 8.21 µM: TGI (NCI/ADR-RES ovarian)
0.537 µM and 0.0856 µM: TGI (HCT-116 colon)
0.229 µM and 0.272 µM and 0.131 µM: TGI (MDA-N)

Nc1cccc2nnccc12
> 100 µM: TGI (SF-539 CNS) | TGI (HOP-92 NSCLC) | TGI (M14 melanoma) | TGI (SN12C renal) | TGI (MALME-3M melanoma) | TGI (BT-549 breast) | TGI (NCI-H23 lung) | TGI (TK-10 renal) | TGI (NCI-H226 lung) | TGI (CAKI-1 renal) | TGI (OVCAR-5 ovarian) | TGI (786-0 renal) | TGI (SNB-19 CNS) | TGI (SNB-75 CNS) | TGI (UACC-257 melanoma) | TGI (OVCAR-8 ovarian) | TGI (MDA-MB-435) | TGI (SK-OV-3 ovarian) | TGI (HCT-15 colon) | TGI (SF-268 CNS) | TGI (SF-295 CNS) | TGI (IGROV1 ovarian) | TGI (COLO 205 colon) | TGI (U251 CNS) | TGI (RXF 393 renal) | TGI (DU-145 prostate) | TGI (EKVX NSCLC) | TGI (MCF7 breast) | TGI (CCRF-CEM leukemia) | TGI (ACHN renal) | TGI (HS 578T breast) | TGI (MDA-N) | TGI (RPMI-8226 leukemia) | TGI (A549 NSCLC) | TGI (SK-MEL-5 melanoma) | TGI (HCT-116 colon) | TGI (SK-MEL-2 melanoma) | TGI (MDA-MB-231 breast) | TGI (SW-620 colon) | TGI (HT29 colon) | TGI (HL-60(TB) leukemia) | TGI (KM12 colon) | TGI (NCI-H460 lung) | TGI (PC-3 prostate) | TGI (NCI-H522 lung) | TGI (UACC-62 melanoma) | TGI (T-47D breast) | TGI (UO-31 renal) | TGI (NCI/ADR-RES ovarian)

— PubChem BioAssay (NCI)
